Data: patent US8465983B1, “Detection and delivery systems utilizing supported lipid bilayers” (priority 2005, dated 2013)

Columns and labels:
[1] = test system: EPC lipid bilayer on porous silica beads; experiment: Suspension study: disruption of EPC bilayers on fluorescein-containing porous silica beads, release of dye into supernatant; assay type: biochemical
Experimental: Lipid coatings on beads were disrupted using 10% TRITON X-100 detergent. Each sample in micro-centrifuge tubes contained 5 mg of lipid bilayer coated, fluorescein entrapped beads in 200 μL of Tris buffer. Samples were centrifuged and 100 μL aliquots of supernatant were mixed with either 100 μL of Tris buffer or 100 μL of 10% TRITON X-100 detergent in separate centrifuge tubes. The fluorescence intensity of each mixture was immediately (time=0) recorded. Each mixture was mixed with its respective bead sample in centrifuge tube and incubated at 25° C. in the dark. After 30 min, samples were centrifuged and fluorescent intensity of the supernatants was measured. Beads were resuspended in their respective supernatants. Fluorescence intensity was again measured at 90 and 150 min.
Experimental procedures were similar to the TRITON X-100 detergent based analysis. For experiments with α-toxin, three different toxin concentrations: 15, 45 and 250 μg/mL were used at 37° C. and 25° C. Beads coated with EPC were used. In the experiments with melittin, 220 μM melittin was used with beads coated with either 100% EPC, 10:90 (molar ratio) mixture of DMPG and EPC or an 80:20 mixture of DMPG and DMPC. All melittin experiments were conducted at 25° C.
Previous suspension studies on disruption of lipid bilayers have been performed with small unilamellar vesicles where disruption of the lipid bilayer membranes was detected by monitoring the unquenching of a highly concentrated, encapsulated dye. In the present work disruption was monitored via release of fluorescein dye from porous beads, by measuring the increase in fluorescence intensity of the supernatant at 520 nm. Beads were first suspended in Tris buffer containing the disruptor. After selected time periods, beads were sedimented by centrifuging and a portion of the supernatant was taken for the measurement. The measured portion was added back to the bead sample to permit continuous monitoring. The scattering effect that was present in vesicle based studies was minimized by measuring only the supernatant after centrifugation of the beads.

[2] = test system: lipid membranes on porous silica beads packed in microcolumn; experiment: Microfluidic study: release of dye from a bead packed microcolumn after TRITON X-100 injection; assay type: biochemical; settings: 10 μL of 10% TRITON X-100 injected, 5 min no flow
Experimental: To create a packed microcolumn of lipid coated beads containing fluorescein, 2 μL of silica bead (diameter=20 μm) containing suspension (0.05 mg/μL) was injected into a microfluidic channel by applying vacuum at the outlet port of the microchannel, followed by the injection of 10 μL of fluorescein-entrapped bead (diameter=10 μm) containing suspension (0.05 mg/μL). The bead packed microchannel was mounted onto a vertical translational stage located in the sample holder space of the fluorimeter. Just below the bead segment, the microchannel was irradiated with an Argon ion laser (λ=488 nm, 8-10 mW) excitation. The inlet of the column was connected to a buffer reservoir while the outlet was connected to a vacuum source. As the fluorescence intensity at 520 nm was monitored, several microliters of Tris buffer was passed through the microchannel before the injection of TRITON X-100 detergent. […]
The packed segment was about 2 mm long. The disruption of the membranes on porous silica beads (containing fluorescein dye) by TRITON X-100 detergent was detected by monitoring the release of the dye from the beads, at a point just below the bead segment as indicated in FIG. 7B. […] The microcolumn was irradiated at 488 nm and fluorescence intensity was monitored at 520 nm. […]

TRITON X-100
increase in fluorescence intensity of the supernatant ([1]; 10% TRITON X-100, first 30 min, 25° C.): more than 70 fold
increase in fluorescence intensity (total disruption of bilayers) ([1]; TRITON X-100 added after 150 min exposure to α-toxin): 50 fold
initial signal (1st peak) less than that observed in suspension studies [2]: ~80%
